Literature values in patent US20140100537A1 (MEDICURE INTERNATIONAL INC., priority 2009, published 2014).

System: platelet aggregation
Settings: typical dosage for tirofiban

CCCCS(=O)(=O)NC(Cc1ccc(OCCCCC2CCNCC2)cc1)C(=O)O.Cl (stereo not shown) [tirofiban]
platelet inhibition provided by typical dosage: > 90%
